Assay results as given in patent US20090099195A1 (ASTRAZENECA AB, priority 2007, published 2009).

What follows are compounds tested against T1, hP2X3 (human Purinergic P2X receptors subtype 3), clone B (Homo sapiens, UniProt P56373) (assay: hP2X3 FLIPR calcium (Fluo-4) antagonist assay, clone B). Settings: Human P2X3 FLIPR Clone B IC50 (nM), RLE cells expressing hP2X3 clone B (NM_002559); agonist 500 nM α,β-methylene-ATP.
T1 sequence (P56373 1-397): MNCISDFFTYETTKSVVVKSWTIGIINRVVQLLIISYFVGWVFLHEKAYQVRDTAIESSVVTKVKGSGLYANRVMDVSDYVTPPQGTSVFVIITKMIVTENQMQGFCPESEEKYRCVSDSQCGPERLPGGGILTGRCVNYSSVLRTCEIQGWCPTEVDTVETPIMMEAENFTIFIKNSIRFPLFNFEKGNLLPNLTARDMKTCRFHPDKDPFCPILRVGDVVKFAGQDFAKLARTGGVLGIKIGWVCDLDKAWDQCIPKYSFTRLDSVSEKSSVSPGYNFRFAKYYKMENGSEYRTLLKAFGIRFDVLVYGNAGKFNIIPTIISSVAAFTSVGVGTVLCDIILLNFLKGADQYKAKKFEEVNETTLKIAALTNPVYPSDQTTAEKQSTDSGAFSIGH

Structure (SMILES)	IC50 [nM]
CC(C)N1Cc2c(NCc3cnc4ccccc4c3)nc(N(C)C)nc2C1=O [Example 220, 2-(dimethylamino)-6-(1-methylethyl)-4-[(quinolin-3-ylmethyl)amino]-5,6-dihydro-7H-pyrrolo[3,4-d]pyrimidin-7-one]	9600
CC(=O)N1CCN(c2nc(NCc3cc4ccccc4n3C)c3c(n2)C(=O)N(C(C)C)C3)CC1 [Example 237, 2-(4-acetylpiperazin-1-yl)-6-isopropyl-4-((1-methyl-1H-indol-2-yl)methylamino)-5H-pyrrolo[3,4-d]pyrimidin-7(6H)-one]	500
CC(=O)N1CCN(c2nc(N[C@@H](C)c3ccc4ncccc4c3)c3c(n2)C(=O)N(C(C)C)C3)CC1 [Example 244, (S)-2-(4-acetylpiperazin-1-yl)-6-isopropyl-4-(1-(quinolin-6-yl)ethylamino)-5H-pyrrolo[3,4-d]pyrimidin-7(6H)-one]	6500
CC(=O)N(C)C1CCN(c2nc(NC(C)(C)Cc3ccc(Cl)cc3)c3c(n2)C(=O)N(C(C)C)C3)C1 (stereo not shown) [Example 67, N-[1-(4-{[2-(4-chlorophenyl)-1,1-dimethylethyl]amino}-6-isopropyl-7-oxo-6,7-dihydro-5H-pyrrolo[3,4-d]pyrimidin-2-yl)pyrrolidin-3-yl]-N-methylacetamide]	450
COc1ccc(CC2CCCN2c2nc(N3CCN(C(C)=O)CC3)nc3c2CN(C(C)C)C3=O)cc1 (single isomer, unassigned) [Example 288, 2-(4-acetylpiperazin-1-yl)-6-isopropyl-4-[2-[(4-methoxyphenyl)methyl]pyrrolidin-1-yl]-5H-pyrrolo[3,4-d]pyrimidin-7-one]	1400
COc1ccc(CNc2nc(N3CCN(C(C)=O)CC3)nc3c2CN(C(C)C)C3=O)c2cccnc12 [Example 240, 2-(4-acetylpiperazin-1-yl)-6-isopropyl-4-((8-methoxyquinolin-5-yl)methylamino)-5H-pyrrolo[3,4-d]pyrimidin-7(6H)-one]	1500
CC(=O)N1CCN(c2nc(NCc3cnc4ccccc4c3)c3c(n2)C(=O)N(C(C)C)C3)C[C@@H]1C [Example 327, (S)-2-(4-acetyl-3-methylpiperazin-1-yl)-6-isopropyl-4-(quinolin-3-ylmethylamino)-5H-pyrrolo[3,4-d]pyrimidin-7(6H)-one]	91
CC(=O)N1CCN(c2nc3c(c(N(Cc4cc5ccccc5cn4)CC(F)(F)F)n2)CN(C(C)C)C3=O)CC1 [Example 264, 2-(4-acetylpiperazin-1-yl)-6-isopropyl-4-((isoquinolin-3-ylmethyl)(2,2,2-trifluoroethyl)amino)-5H-pyrrolo[3,4-d]pyrimidin-7(6H)-one]	2900
CC(=O)N1CCN(c2nc(N[C@@H](C)c3ccc(OC(CF)CF)cc3)c3c(n2)C(=O)N(C(C)C)C3)CC1 [Example 251, (S)-2-(4-acetylpiperazin-1-yl)-4-(1-(4-(1,3-difluoropropan-2-yloxy)phenyl)ethylamino)-6-isopropyl-5H-pyrrolo[3,4-d]pyrimidin-7(6H)-one]	5200
CC(C)N1Cc2c(nc(NCCN(C)C)nc2N2CCCC2Cc2ccc(Cl)cc2)C1=O (stereo not shown) [Example 57, 4-[2-(4-chlorobenzyl)pyrrolidin-1-yl]-2-{[2-(dimethylamino)ethyl]amino}-6-isopropyl-5,6-dihydro-7H-pyrrolo[3,4-d]pyrimidin-7-one]	8500
CC(=O)N1CCN(c2nc3c(c(N4CCC[C@@H]4C(=O)OC(C)(C)C)n2)CN(C(C)C)C3=O)CC1 [Example 277, tert-butyl (2R)-1-[4-(4-acetylpiperazin-1-yl)-7-oxo-8-propan-2-yl-3,5,8-triazabicyclo[4.3.0]nona-1,3,5-trien-2-yl]pyrrolidine-2-carboxylate]	7700
CC(=O)N1CCN(c2nc3c(c(N4CCOC(C)(c5ccc(Cl)cc5)C4)n2)CN(C(C)C)C3=O)CC1 (stereo not shown) [Example 123, 2-(4-acetylpiperazin-1-yl)-4-[2-(4-chlorophenyl)-2-methylmorpholin-4-yl]-6-isopropyl-5,6-dihydro-7H-pyrrolo[3,4-d]pyrimidin-7-one]	9100
CC(=O)N1CCN(c2nc(NCc3cnc4ccccc4c3)c3c(n2)C(=O)N(C(C)C)C3)C(C)C1 (stereo not shown) [Example 352, 2-(4-Acetyl-2-methylpiperazin-1-yl)-6-isopropyl-4-(quinolin-3-ylmethylamino)-5H-pyrrolo[3,4-d]pyrimidin-7(6M)-one]	200
CC(C)N1Cc2c(NC(c3ccccc3)c3ccc(Cl)cc3)nc(N3CCOCC3)nc2C1=O (stereo not shown) [Example 77, 4-{[(4-Chloro-phenyl)-phenyl-methyl]-amino}-6-isopropyl-2-morpholin-4-yl-5,6-dihydro-pyrrolo[3,4-d]pyrimidin-7-one]	260
CCC(=O)N1CCN(c2nc(NC(C)(C)Cc3ccc(Cl)cc3)c3c(n2)C(=O)N(C(C)C)C3)CC1 [Example 71, 4-{[2-(4-chlorophenyl)-1,1-dimethylethyl]amino}-6-isopropyl-2-(4-propionylpiperazin-1-yl)-5,6-dihydro-7H-pyrrolo[3,4-d]pyrimidin-7-one]	130
CC(=O)N1CCN(c2nc3c(c(N(Cc4ccc(Cl)cc4)CC4CC4)n2)CN(C(C)C)C3=O)CC1 [Example 59, 2-(4-acetylpiperazin-1-yl)-4-[(4-chlorobenzyl)(cyclopropylmethyl)amino]-6-isopropyl-5,6-dihydro-7H-pyrrolo[3,4-d]pyrimidin-7-one]	220
CCN1CCN(c2cc(C(F)(F)F)ccc2CNc2nc(N3CCN(C(C)=O)CC3)nc3c2CN(C(C)C)C3=O)CC1 [Example 223, 2-(4-acetylpiperazin-1-yl)-4-(2-(4-ethylpiperazin-1-yl)-4-(trifluoromethyl)benzylamino)-6-isopropyl-5H-pyrrolo[3,4-d]pyrimidin-7(6H)-one]	620
CC(=O)N1CCN(c2nc(N[C@H](C)c3ccc(OC(CF)CF)cc3)c3c(n2)C(=O)N(C(C)C)C3)CC1 [Example 250, (R)-2-(4-acetylpiperazin-1-yl)-4-(1-(4-(1,3-difluoropropan-2-yloxy)phenyl)ethylamino)-6-isopropyl-5H-pyrrolo[3,4-d]pyrimidin-7(6H)-one]	430
CC(C)N1Cc2c(NC(c3ccccc3)c3ccc(Cl)cc3)nc(NCCN(C)C)nc2C1=O (stereo not shown) [Example 9, 4-{[(4-chlorophenyl)(phenyl)methyl]amino}-2-{[2-(dimethylamino)ethyl]amino}-6-isopropyl-5,6-dihydro-7H-pyrrolo[3,4-d]pyrimidin-7-one]	91
CC(=O)N1CCN(c2nc(NC(C)(C)Cc3cccc(C)c3)c3c(n2)C(=O)N(C(C)C)C3)CC1 [Example 333, 2-(4-acetylpiperazin-1-yl)-6-isopropyl-4-(2-methyl-1-m-tolylpropan-2-ylamino)-5H-pyrrolo[3,4-d]pyrimidin-7(6H)-one]	830
CCN1Cc2c(NC(C)(C)Cc3ccc(F)cc3)nc(N3CCN(C(C)=O)CC3)nc2C1=O [Example 118, 2-(4-acetylpiperazin-1-yl)-6-ethyl-4-{[2-(4-fluorophenyl)-1,1-dimethylethyl]amino}-5,6-dihydro-7H-pyrrolo[3,4-d]pyrimidin-7-one]	1100
CC(C)N1Cc2c(NCc3cnc4ccccc4c3)nc(N3CCC(C(N)=O)CC3)nc2C1=O [Example 209, 1-(6-isopropyl-7-oxo-4-(quinolin-3-ylmethylamino)-6,7-dihydro-5H-pyrrolo[3,4-d]pyrimidin-2-yl)piperidine-4-carboxamide]	2800
CC(=O)N1CCN(c2nc(NCc3cn4ccccc4n3)c3c(n2)C(=O)N(C(C)C)C3)CC1 [Example 155, 4-(4-acetylpiperazin-1-yl)-2-(1,7-diazabicyclo[4.3.0]nona-2,4,6,8-tetraen-8-ylmethylamino)-8-propan-2-yl-3,5,8-triazabicyclo[4.3.0]nona-1,3,5-trien-7-one]	500
CC(=O)N1CCN(c2nc3c(c(N(C)Cc4cc5ccccc5nc4C)n2)CN(C(C)C)C3=O)CC1 [Example 347, 2-(4-acetylpiperazin-1-yl)-6-isopropyl-4-(methyl((2-methylquinolin-3-yl)methyl)amino)-5H-pyrrolo[3,4-d]pyrimidin-7(6H)-one]	2900
CC(=O)N1CCN(c2nc(NC(C)(C)Cc3ccc(F)cc3)c3c(n2)C(=O)N(C(C)C)C3)C(C)C1 (stereo not shown) [Example 139, 2-(4-Acetyl-2-methyl-piperazin-1-yl)-4-[2-(4-fluoro-phenyl)-1,1-dimethyl-ethylamino]-6-isopropyl-5,6-dihydro-pyrrolo[3,4-d]pyrimidin-7-one]	1000
CC(=O)N1CCN(c2nc(N[C@H](C)c3ccc(OC(C)C)cc3)c3c(n2)C(=O)N(C(C)C)C3)CC1 [Example 176, (R)-2-(4-acetylpiperazin-1-yl)-4-(1-(4-isopropoxyphenyl)ethylamino)-6-isopropyl-5H-pyrrolo[3,4-d]pyrimidin-7(6H)-one]	80
Cc1ccc(C(Nc2nc(N3CCN(C(C)C)CC3)nc3c2CN(C(C)C)C3=O)c2ccccc2)cc1 (stereo not shown) [Example 102, 2-(4-isopropyl-piperazin-1-yl)-6-isopropyl-4-[(phenyl-p-tolyl-methyl)-amino]-5,6-dihydro-pyrrolo[3,4-d]-pyrimidin-7-one]	200
CC(C)N1Cc2c(NC(c3ccccc3)c3ccc(Cl)cc3)nc(N(C)CCN(C)C)nc2C1=O (stereo not shown) [Example 19, 4-{[(4-chlorophenyl)(phenyl)methyl]amino}-2-[[2-(dimethylamino)ethyl](methyl)amino]-6-isopropyl-5,6-dihydro-7H-pyrrolo[3,4-d]pyrimidin-7-one]	93
